Data on four compounds can be found in patent US20250163043A1 (TRANSTHERA SCIENCES (NANJING), INC., priority 2021, published 2025).

The target in one test is CDK1/CycE1 (Homo sapiens, UniProt P06493). Description: ADP-Glo kinase assay on CDK enzymatic activity, CDK1/CycE1. The class given is biochemical. The following applies: ADP-Glo; 10 concentrations from 10 μM, 4-fold; 60 min room temperature; read-out: CDK1/CycE1/nM (IC50). In a few lines: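 Compounds in 10-point 4-fold dilutions from 10 μM final, preincubated 10 min with kinase, then substrate/ATP added; 60 min reaction at room temperature. ADP-Glo luminescence read.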
CDK1/CycE1, sequence (P06493 whole entry, species assumed): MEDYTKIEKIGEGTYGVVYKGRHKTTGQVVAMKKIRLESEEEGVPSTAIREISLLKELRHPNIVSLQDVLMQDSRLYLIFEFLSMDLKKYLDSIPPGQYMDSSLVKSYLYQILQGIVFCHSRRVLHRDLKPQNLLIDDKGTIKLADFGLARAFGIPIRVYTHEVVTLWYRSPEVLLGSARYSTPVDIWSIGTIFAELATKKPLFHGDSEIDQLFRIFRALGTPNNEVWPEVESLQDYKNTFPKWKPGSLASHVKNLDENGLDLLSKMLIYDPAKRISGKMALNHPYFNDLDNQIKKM
CDK1/CycE1, sequence (P24864 whole entry partner, species assumed): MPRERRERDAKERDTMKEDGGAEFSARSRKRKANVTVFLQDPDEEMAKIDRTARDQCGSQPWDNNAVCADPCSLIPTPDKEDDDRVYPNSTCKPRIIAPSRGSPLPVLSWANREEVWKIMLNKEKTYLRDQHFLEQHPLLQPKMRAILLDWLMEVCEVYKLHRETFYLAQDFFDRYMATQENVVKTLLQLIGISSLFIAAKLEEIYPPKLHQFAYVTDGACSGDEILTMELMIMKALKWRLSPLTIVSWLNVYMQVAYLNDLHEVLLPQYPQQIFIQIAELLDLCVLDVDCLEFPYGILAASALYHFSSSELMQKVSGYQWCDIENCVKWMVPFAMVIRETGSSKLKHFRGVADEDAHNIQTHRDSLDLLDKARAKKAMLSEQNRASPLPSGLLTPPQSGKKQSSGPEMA

A further test concerns the target CDK5/p25NCK (Homo sapiens, UniProt Q00535). Description: ADP-Glo kinase assay on CDK enzymatic activity, CDK5/p25NCK. The class given is biochemical. The following applies: 10 concentrations from 10 μM, 4-fold, 60 min room temperature. The gist of the method:
(§1)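 Kinase and compound are mixed and held 10 min at room temperature before substrate peptide and ATP start a 60 min reaction. Remaining ATP is depleted with ADP-Glo reagent (40 min), detection reagent is added (40 min), and luminescence gives inhibition rates across ten concentrations from 10 μM, fitted to IC50.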

Test [1] relates to NCI-H929 (human myeloma cells). Nature of the test: CCK-8 cell proliferation assay, NCI-H929. The following applies: 72 h incubation, 11 concentrations from 5000 nM, 3-fold. The class given is cell-based. Here is the method: Test samples: the compounds of the present invention, having structures shown above.
RMPI 1640, Fetal Bovine Serum (FBS), a CCK-8 method cell proliferation assay kit, DMSO (dimethyl sulfoxide), a 96-well cell culture plate, an Iscov'Modified Dulbecco's culture medium (IMDM), a multifunctional microplate reader,
MV-4-11 (human myelomonocytic leukemia cells) and NCI-H929 (human myeloma cells).
The compounds were dissolved in DMSO and diluted 3-fold in the 96-well plate to obtain stock solutions with 11 concentration gradients. Each cell was inoculated into a 96-well plate, and the diluted compound stock solution was added to the 96-well plate to obtain a series of 11 concentration gradients of compound solutions with final concentrations of 5000 nM starting and 3-fold gradient decreasing, wherein the final DMSO content was […]. There was a medium containing 1‰ DMSO in the negative control well. The treated cells were incubated at 37° C. with 5% CO2 and 95% humidity, wherein MV-4-11 were incubated for 24 h and NCI-H929 for 72 h. After incubation was completed, each well was added with 10 μL of CCK-8 reagent, incubated for 1-3 h at room temperature and placed in the microplate reader, and the absorbance was read at 450 nm.
The inhibition rate was calculated according to the following formula: […]
ODcmpd: compound absorbance; ODpositive: average value of the absorbance of positive control without compound; ODvehicle: average value of the absorbance of solvent vehicle control.
IC50 values were fitted using GraphPad 7.0 based on inhibition rates of compounds at different concentrations.

In the next test the target is CDK2/CycA2 (Homo sapiens, UniProt P24941). Description: ADP-Glo kinase assay on CDK enzymatic activity, CDK2/CycA2. The class given is biochemical. The following applies: 10 concentrations from 10 μM, 4-fold, 60 min room temperature. The gist of the method:
as §1

A further test addresses CDK3/CycE1 (Homo sapiens, UniProt Q00526). Nature of the test: ADP-Glo kinase assay on CDK enzymatic activity, CDK3/CycE1. The class given is biochemical. The following applies: 10 concentrations from 10 μM, 4-fold, 60 min room temperature. In a few lines: as §1
A further test addresses CDK9/CycT1 (Homo sapiens, UniProt P50750). Nature of the test: ADP-Glo kinase assay on CDK enzymatic activity, CDK9/CycT1. The following applies: 10 concentrations from 10 μM, 4-fold, 60 min room temperature. The class given is biochemical. The gist of the method:
as §1

CDK5/p25NCK, sequence (Q00535 whole entry, species assumed): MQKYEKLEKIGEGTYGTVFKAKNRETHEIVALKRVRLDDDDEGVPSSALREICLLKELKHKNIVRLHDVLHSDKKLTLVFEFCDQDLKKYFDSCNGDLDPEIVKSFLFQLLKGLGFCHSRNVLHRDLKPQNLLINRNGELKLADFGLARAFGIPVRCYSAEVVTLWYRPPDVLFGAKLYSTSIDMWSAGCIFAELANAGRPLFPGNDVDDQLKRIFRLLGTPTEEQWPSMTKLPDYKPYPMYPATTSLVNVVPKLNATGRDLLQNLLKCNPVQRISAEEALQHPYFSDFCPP
CDK5/p25NCK, sequence (Q15078 99-307 partner limits assumed, species assumed): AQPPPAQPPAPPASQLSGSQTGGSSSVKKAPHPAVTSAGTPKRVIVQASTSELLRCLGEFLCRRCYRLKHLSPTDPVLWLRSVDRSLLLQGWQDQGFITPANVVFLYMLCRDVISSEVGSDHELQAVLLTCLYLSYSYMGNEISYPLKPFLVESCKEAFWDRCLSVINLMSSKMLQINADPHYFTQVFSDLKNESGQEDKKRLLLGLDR
CDK3/CycE1, sequence (Q00526 whole entry, species assumed): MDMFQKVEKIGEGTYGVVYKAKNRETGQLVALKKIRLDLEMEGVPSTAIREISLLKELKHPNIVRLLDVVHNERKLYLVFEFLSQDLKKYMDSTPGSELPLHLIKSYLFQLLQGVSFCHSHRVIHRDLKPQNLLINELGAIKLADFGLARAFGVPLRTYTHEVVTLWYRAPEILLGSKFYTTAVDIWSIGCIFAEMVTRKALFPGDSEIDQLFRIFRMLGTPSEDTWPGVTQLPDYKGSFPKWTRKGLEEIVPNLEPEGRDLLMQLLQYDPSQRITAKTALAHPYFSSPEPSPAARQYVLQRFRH
CDK3/CycE1, sequence (P24864 whole entry partner, species assumed): as the sequence (P24864 whole entry partner, species assumed) above
CDK9/CycT1, sequence (P50750 whole entry): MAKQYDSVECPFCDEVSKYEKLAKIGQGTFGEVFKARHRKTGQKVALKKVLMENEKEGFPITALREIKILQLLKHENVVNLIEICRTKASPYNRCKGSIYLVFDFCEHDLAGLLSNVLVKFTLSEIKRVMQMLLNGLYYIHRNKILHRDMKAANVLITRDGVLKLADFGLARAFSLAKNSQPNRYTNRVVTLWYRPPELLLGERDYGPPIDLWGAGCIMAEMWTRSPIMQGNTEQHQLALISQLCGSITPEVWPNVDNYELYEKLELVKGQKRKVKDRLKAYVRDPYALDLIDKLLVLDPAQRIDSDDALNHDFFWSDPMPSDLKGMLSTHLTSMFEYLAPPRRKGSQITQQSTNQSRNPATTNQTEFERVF
CDK9/CycT1, sequence (O60563 whole entry partner): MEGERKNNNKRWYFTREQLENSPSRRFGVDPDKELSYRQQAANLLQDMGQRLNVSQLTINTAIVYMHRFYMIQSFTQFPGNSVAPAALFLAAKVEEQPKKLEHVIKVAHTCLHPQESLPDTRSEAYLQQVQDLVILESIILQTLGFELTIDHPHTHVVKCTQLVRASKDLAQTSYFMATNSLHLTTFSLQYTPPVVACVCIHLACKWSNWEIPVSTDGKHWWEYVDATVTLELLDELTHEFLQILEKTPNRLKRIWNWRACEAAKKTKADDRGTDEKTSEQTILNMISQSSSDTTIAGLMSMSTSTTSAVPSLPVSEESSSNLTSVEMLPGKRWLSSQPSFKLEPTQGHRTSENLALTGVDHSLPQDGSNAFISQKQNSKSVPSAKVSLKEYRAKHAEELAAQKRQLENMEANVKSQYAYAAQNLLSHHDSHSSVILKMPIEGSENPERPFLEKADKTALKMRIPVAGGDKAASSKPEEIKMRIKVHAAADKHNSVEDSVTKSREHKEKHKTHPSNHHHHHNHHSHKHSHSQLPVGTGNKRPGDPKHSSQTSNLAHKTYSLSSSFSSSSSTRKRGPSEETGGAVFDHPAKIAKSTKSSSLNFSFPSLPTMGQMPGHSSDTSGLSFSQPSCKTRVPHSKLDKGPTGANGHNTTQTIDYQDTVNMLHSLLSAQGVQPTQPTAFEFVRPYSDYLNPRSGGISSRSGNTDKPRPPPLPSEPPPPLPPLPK

For `CC(C)Nc1nc(C#N)cc2cnc(N[C@H]3CC[C@H](N)C3)nc12` [Compound 45, 2-(((1S,3S)-3-aminocyclopentyl)amino)-8-(isopropylamino)pyrido[3,4-d]pyrimidine-6-carbonitrile], the IC50 was determined as 114 nM on CDK1/CycE1; 153 nM against CDK5/p25NCK; 22 nM in test [1]; 47 nM at CDK2/CycA2; 85 nM on CDK3/CycE1; 2 nM at CDK9/CycT1.
As to `CC(C)Nc1nc(C#N)cc2cnc(N[C@H]3CC[C@H](N)C3)cc12` [Compound 28, 7-(((1S,3S)-3-aminocyclopentyl)amino)-1-(isopropylamino)-2,6-naphthyridine-3-carbonitrile], the IC50 at CDK1/CycE1 was 220 nM; on CDK5/p25NCK it was 96 nM; in test [1], 25 nM; against CDK2/CycA2, 50 nM; against CDK3/CycE1 it was 97 nM; at CDK9/CycT1, 3 nM.
`CC(C)Nc1nc(C#N)cc2cnc(N[C@@H]3CC[C@@H](N)C3)cc12` [Compound 30, 7-(((1R,3R)-3-aminocyclopentyl)amino)-1-(isopropylamino)-2,6-naphthyridine-3-carbonitrile]: the IC50 against CDK5/p25NCK was found to be 31 nM; in test [1], 14 nM; against CDK2/CycA2, 15 nM; on CDK3/CycE1, 95 nM; against CDK9/CycT1, 2 nM.
On to `CC(C)Nc1nc(C#N)cc2cnc(N[C@H]3CCCNC3)nc12` [Compound 55, (S)-8-(isopropylamino)-2-(piperidin-3-ylamino)pyrido[3,4-d]pyrimidine-6-carbonitrile], for which the IC50 at CDK1/CycE1 turned out to be 43 nM; at CDK5/p25NCK, 56 nM; in test [1] it was 26.1 nM; against CDK2/CycA2, 60 nM; on CDK3/CycE1, 24 nM; at CDK9/CycT1, 1 nM.
